Test results: patent US20070232658A1, “Protein Kinase C Inhibitors for the Treatment of Autoimmune Diseases and of Transplant Rejiction” (priority 2004, published 2007)
Several values for one entry are separate records, joined by “and”; a condition that tells them apart may be missing. Identical values can stand only once.

Experiments:
[1] = test system: heart allograft rejection; test: Rat heart transplantation; format: in vivo; details: rat heart transplant, Lewis/DA, 30 mg/kg bid
Protocol: The strain combination used: Male Lewis (RT^1 haplotype) and DA (RT^1 haplotype). The animals are anaesthetised using inhalational isofluorane. […] The aorta is ligated and divided distal to the first branch and the brachiocephalic trunk is divided at the first bifurcation. The left pulmonary artery is ligated and divided and the right side divided but left open. All other vessels are dissected free, ligated and divided and the donor heart is removed into iced saline.
The recipient is prepared by dissection and cross-clamping of the infra-renal abdominal aorta and vena cava. The graft is implanted with end-to-side anastomoses, using 10/0 monofilament suture, between the donor brachiocephalic trunk and the recipient aorta and the donor right pulmonary artery to the recipient vena cava. The clamps are removed, the graft tethered retroabdominally, the abdominal contents washed with warm saline and the animal is closed and allowed to recover under a heating lamp. Graft survival is monitored by daily palpation of the beating donor heart through the abdominal wall. Rejection is considered to be complete when heart beat stops. Increases of graft survival are obtained in animals treated with a compound of formula I, II, III or IV or a pharmaceutically acceptable salt or solvate thereof administered orally at a daily dose of 10 to 30 mg/kg bid. […]

[2] = test system: Balb/c spleen cells stimulated by irradiated or mitomycin C treated CBA spleen cells; test: Murine mixed lymphocyte reaction (MLR); format: cell-based; details: Mus musculus, 120 h, 5 days co-incubation, labeled precursor incorporation into DNA, read-out: IC50 (concentration resulting in 50% inhibition of cell proliferation)
Protocol: Spleen cells (0.5×10^6) from Balb/c mice (female, 8-10 weeks) are co-incubated for 5 days with 0.5×10^6 irradiated (2000 rads) or mitomycin C treated spleen cells from CBA mice (female, 8-10 weeks). The irradiated allogeneic cells induce a proliferative response in the Balb/c spleen cells which can be measured by labeled precursor incorporation into the DNA. […] The antiproliferative effect of the compounds on the Balb/c cells is measured at various dilutions and the concentration resulting in 50% inhibition of cell proliferation (IC50) is calculated.

Structure (SMILES) | prolongation of graft survival [1] | IC50 [2] [nM]
Cn1cc(C2=C(c3cn(C4CCN(Cc5ccccn5)CC4)c4ccccc34)C(=O)NC2=O)c2ccccc21 [Compound A, 3-(1-methyl-1H-indol-3-yl)-4-[1-{(1-pyridin-2-ylmethyl)-piperidin-4-yl}-1H-indol-3-yl]-pyrrole-2,5-dione] | 14 days and 25 days and 26 days | 
Cn1cc(C2=C(c3cn(C4CCNCC4)c4ccccc34)C(=O)NC2=O)c2ccccc21 [Compound B, 3-(1-methyl-1H-indol-3-yl)-4-[1-(piperidin-4-yl)-1H-indol-3-yl]-pyrrole-2,5-dione] |  | 195
